Test results: ChEMBL document CHEMBL3885861, “Open TG-GATES”

Organism: Rattus norvegicus
Test: Open TG-GATES - Regimen: Single
Assay type: toxicity, organism-based, Sprague-Dawley
Set-up: regimen Single, gender Male, age 6 weeks
Settings: in vivo, po, route gavage; for APTT / Bas / Eos / Fbg / Hb / Ht / Lym / MCH / MCHC / MCV / Mono / Neu / PT / Plat / Ret / WBC: tissue Blood; for KIDNEY_L / KIDNEY_R / KIDNEY_TOTAL: tissue Kidney; for LIVER: tissue Liver; for ALP / ALT / AST / BUN / CRE / DBIL / GLC / IP / K / LDH / Na / PL / RALB / TBIL / TC / TG / TP / gamma-GTP / Ca: tissue Plasma
[1] = 0 mg/kg, 3 h, dose level Control
[2] = 0 mg/kg, 6 h, dose level Control
[3] = 0 mg/kg, 9 h, dose level Control
[4] = 0 mg/kg, 24 h, dose level Control

CN(C)CCCN1c2ccccc2CCc2ccc(Cl)cc21 [CLOMIPRAMINE]
TERMINAL_BW [1]: 213.4 g | APTT [1]: 23.8 s | Bas [1]: 0.4% | Eos [1]: 0.8% | Fbg [1]: 259.6 mg/dL | Hb [1]: 13.8 g/dL | Ht [1]: 42.8% | Lym [1]: 77.4% | MCH [1]: 21.4 pg | MCHC [1]: 32.3% | MCV [1]: 66.4 fL | Mono [1]: 3.6% | Neu [1]: 16.8% | PT [1]: 13.6 s | Plat [1]: 115.6 x10_4/uL | Ret [1]: 8.2% | WBC [1]: 86.3 x10_2/uL | KIDNEY_L [1]: 1 g | KIDNEY_R [1]: 1 g | KIDNEY_TOTAL [1]: 1.9 g | LIVER [1]: 9.4 g | ALP [1]: 1695.8 IU/L | ALT [1]: 43.8 IU/L | AST [1]: 82.8 IU/L | BUN [1]: 9.6 mg/dL | CRE [1]: 0.2 mg/dL | DBIL [1]: 0.006 mg/dL | GLC [1]: 182.4 mg/dL | IP [1]: 9.7 mg/dL | K [1]: 4.2 meq/L | LDH [1]: 98.4 IU/L | Na [1]: 140.2 meq/L | PL [1]: 140 mg/dL | RALB [1]: 2.5 g/dL | TBIL [1]: 0.074 mg/dL | TC [1]: 75.4 mg/dL | TG [1]: 54.2 mg/dL | TP [1]: 5.2 g/dL | gamma-GTP [1]: 1 IU/L | TERMINAL_BW [2]: 213.9 g | APTT [2]: 16.6 s | Bas [2]: 0% | Eos [2]: 0.8% | Fbg [2]: 254.2 mg/dL | Hb [2]: 13.7 g/dL | Ht [2]: 42.3% | Lym [2]: 76.2% | MCH [2]: 21 pg | MCHC [2]: 32.3% | MCV [2]: 65.1 fL | Mono [2]: 2.8% | Neu [2]: 19.2% | PT [2]: 13.9 s | Plat [2]: 125.3 x10_4/uL | Ret [2]: 8.3% | WBC [2]: 83.4 x10_2/uL | KIDNEY_L [2]: 1 g | KIDNEY_R [2]: 1 g | KIDNEY_TOTAL [2]: 2 g | LIVER [2]: 9.4 g | ALP [2]: 1630.4 IU/L | ALT [2]: 38.6 IU/L | AST [2]: 76.6 IU/L | BUN [2]: 9.2 mg/dL | CRE [2]: 0.2 mg/dL | Ca [2]: 10.8 mg/dL | DBIL [2]: 0.006 mg/dL | GLC [2]: 178.2 mg/dL | IP [2]: 9.8 mg/dL | K [2]: 4.2 meq/L | LDH [2]: 90 IU/L | Na [2]: 140.4 meq/L | PL [2]: 142.6 mg/dL | RALB [2]: 2.6 g/dL | TBIL [2]: 0.07 mg/dL | TC [2]: 71.8 mg/dL | TG [2]: 77.8 mg/dL | TP [2]: 5.4 g/dL | gamma-GTP [2]: 1 IU/L | TERMINAL_BW [3]: 213.6 g | APTT [3]: 16.7 s | Bas [3]: 0.2% | Eos [3]: 1% | Fbg [3]: 245 mg/dL | Hb [3]: 13.4 g/dL | Ht [3]: 41% | Lym [3]: 78.2% | MCH [3]: 21 pg | MCHC [3]: 32.6% | MCV [3]: 64.4 fL | Mono [3]: 1.6% | Neu [3]: 18% | PT [3]: 14 s | Plat [3]: 133.7 x10_4/uL | Ret [3]: 8.1% | WBC [3]: 86.1 x10_2/uL | KIDNEY_L [3]: 1 g | KIDNEY_R [3]: 1 g | KIDNEY_TOTAL [3]: 2 g | LIVER [3]: 8.5 g | ALP [3]: 1606 IU/L | ALT [3]: 39.8 IU/L | AST [3]: 79.8 IU/L | BUN [3]: 9.8 mg/dL | CRE [3]: 0.2 mg/dL | DBIL [3]: 0.008 mg/dL | GLC [3]: 181 mg/dL | IP [3]: 10.1 mg/dL | K [3]: 4 meq/L | LDH [3]: 109.8 IU/L | Na [3]: 140.6 meq/L | PL [3]: 139.2 mg/dL | RALB [3]: 2.4 g/dL | TBIL [3]: 0.07 mg/dL | TC [3]: 75.4 mg/dL | TG [3]: 51.2 mg/dL | TP [3]: 5.1 g/dL | gamma-GTP [3]: 1 IU/L | TERMINAL_BW [4]: 229.8 g | APTT [4]: 18 s | Bas [4]: 0% | Eos [4]: 0.8% | Fbg [4]: 257.8 mg/dL | Hb [4]: 13.5 g/dL | Ht [4]: 41.6% | Lym [4]: 82.6% | MCH [4]: 20.5 pg | MCHC [4]: 32.4% | MCV [4]: 63.4 fL | Mono [4]: 2.8% | Neu [4]: 12.6% | PT [4]: 13.4 s | Plat [4]: 129 x10_4/uL | Ret [4]: 7.4% | WBC [4]: 82.9 x10_2/uL | KIDNEY_L [4]: 1 g | KIDNEY_R [4]: 1 g | KIDNEY_TOTAL [4]: 2.1 g | LIVER [4]: 11 g | ALP [4]: 1743.2 IU/L | ALT [4]: 45.8 IU/L | AST [4]: 73.4 IU/L | BUN [4]: 14 mg/dL | CRE [4]: 0.2 mg/dL | Ca [4]: 10.9 mg/dL | DBIL [4]: 0.01 mg/dL | GLC [4]: 176.4 mg/dL | IP [4]: 8.2 mg/dL | K [4]: 4.1 meq/L | LDH [4]: 80.2 IU/L | Na [4]: 140.8 meq/L | PL [4]: 161.6 mg/dL | RALB [4]: 2.6 g/dL | TBIL [4]: 0.062 mg/dL | TC [4]: 83.2 mg/dL | TP [4]: 5.5 g/dL | gamma-GTP [4]: 1 IU/L | TERMINAL_BW (10 mg/kg, 3 h, dose level Low): 216.3 g
